# Experimental data taken from patent US20260131009A1, “BIFUNCTIONAL PI3K-ALPHA INHIBITORS AND USES THEREOF” (Relay Therapeutics, Inc., priority 2021, published 2026).
# Experiments:
# MCF10A = MCF10A IC50 assay; type: cell-based; details: Homo sapiens, MCF-10A; class symbols; key not given
# Procedure, shortened: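 MCF10A cells overexpressing hotspot PIK3CA mutations were seeded at 5,000 per well in supplemented DMEM/F12 and adhered overnight (37 °C, 5% CO₂). Compounds were added acoustically as 12-dose 1:3 series, in duplicate, for 2 hours. Cells were lysed 60 min, then incubated 4 hours at room temperature with CisBio phospho-AKT (Ser473) HTRF antibodies and read on an Envision 2105. IC₅₀ for AKT phosphorylation came from Genedata software and was reported as binned categories.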
# PI3Kα = PI3Kα (Homo sapiens, UniProt P42336, H1047R); experiment: ADP-Glo IC50 assay; type: biochemical; details: class symbols; key not given
# Chain of PI3Kα (P42336 whole entry H1047R): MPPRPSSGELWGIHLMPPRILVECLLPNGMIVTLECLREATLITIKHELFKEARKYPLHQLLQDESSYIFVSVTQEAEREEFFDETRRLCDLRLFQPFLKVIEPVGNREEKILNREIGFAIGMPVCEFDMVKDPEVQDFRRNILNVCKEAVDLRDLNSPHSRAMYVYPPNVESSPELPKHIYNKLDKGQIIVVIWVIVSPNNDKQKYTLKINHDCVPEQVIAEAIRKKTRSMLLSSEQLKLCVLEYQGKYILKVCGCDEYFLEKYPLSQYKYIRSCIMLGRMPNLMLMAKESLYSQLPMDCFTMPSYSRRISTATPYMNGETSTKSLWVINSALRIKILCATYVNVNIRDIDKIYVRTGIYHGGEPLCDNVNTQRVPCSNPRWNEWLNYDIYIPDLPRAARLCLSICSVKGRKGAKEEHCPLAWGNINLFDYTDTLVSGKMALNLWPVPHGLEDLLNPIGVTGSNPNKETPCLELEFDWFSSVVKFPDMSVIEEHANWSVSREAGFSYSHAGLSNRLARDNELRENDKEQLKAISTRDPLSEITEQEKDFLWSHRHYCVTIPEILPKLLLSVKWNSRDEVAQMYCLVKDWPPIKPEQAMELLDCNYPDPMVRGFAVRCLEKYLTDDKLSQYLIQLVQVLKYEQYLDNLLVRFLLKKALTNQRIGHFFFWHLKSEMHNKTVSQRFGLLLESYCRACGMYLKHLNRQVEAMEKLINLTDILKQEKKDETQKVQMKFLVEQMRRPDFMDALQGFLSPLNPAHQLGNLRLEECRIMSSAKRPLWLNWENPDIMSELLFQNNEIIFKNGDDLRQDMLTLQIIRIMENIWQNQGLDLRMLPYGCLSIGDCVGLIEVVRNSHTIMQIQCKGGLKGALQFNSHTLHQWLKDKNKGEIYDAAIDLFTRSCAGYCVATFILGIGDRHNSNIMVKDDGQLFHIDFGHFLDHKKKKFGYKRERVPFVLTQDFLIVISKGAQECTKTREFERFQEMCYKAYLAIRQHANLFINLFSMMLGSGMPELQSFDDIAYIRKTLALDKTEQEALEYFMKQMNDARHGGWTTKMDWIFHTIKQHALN
# Chain of PI3Kα (P27986 whole entry partner): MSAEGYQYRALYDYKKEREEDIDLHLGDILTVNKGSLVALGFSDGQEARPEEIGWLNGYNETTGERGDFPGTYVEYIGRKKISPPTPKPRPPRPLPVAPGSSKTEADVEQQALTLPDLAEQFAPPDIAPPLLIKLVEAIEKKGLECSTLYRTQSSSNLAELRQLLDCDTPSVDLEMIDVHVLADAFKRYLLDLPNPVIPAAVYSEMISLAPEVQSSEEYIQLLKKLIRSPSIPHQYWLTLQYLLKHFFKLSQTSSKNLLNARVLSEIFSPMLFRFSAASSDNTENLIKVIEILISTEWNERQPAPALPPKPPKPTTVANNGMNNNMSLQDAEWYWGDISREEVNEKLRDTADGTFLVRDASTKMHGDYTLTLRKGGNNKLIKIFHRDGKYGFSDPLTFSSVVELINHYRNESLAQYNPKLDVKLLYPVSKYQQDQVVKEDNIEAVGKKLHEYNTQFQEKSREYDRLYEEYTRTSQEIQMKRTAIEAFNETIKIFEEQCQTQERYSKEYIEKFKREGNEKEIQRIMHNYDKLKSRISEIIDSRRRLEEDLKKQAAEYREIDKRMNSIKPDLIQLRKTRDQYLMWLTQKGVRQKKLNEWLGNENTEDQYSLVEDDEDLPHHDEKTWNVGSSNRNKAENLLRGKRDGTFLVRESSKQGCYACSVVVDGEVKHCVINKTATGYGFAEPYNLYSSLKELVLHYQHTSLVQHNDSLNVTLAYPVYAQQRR
SMILES,IC50 (MCF10A) [µM],IC50 (PI3Kα) [µM]
Cc1ccccc1Nc1ncc(C(=O)NCCOCCOCCOCCOCCOCCC(=O)N[C@H](C(=O)N2C[C@H](O)C[C@H]2C(=O)N[C@@H](C)c2ccc(-c3scnc3C)cc2)C(C)(C)C)cc1NC(=O)c1csc2ccccc12 [Example I-11],10 to 36,1 to 10
Cc1ccccc1Nc1ncc(C(=O)NCCCCNc2ccc3c(c2)C(=O)N(C2CCC(=O)NC2=O)C3=O)cc1NC(=O)c1csc2ccccc12 (stereo not shown) [Example I-54],10 to 36,< 0.1
Cc1ccccc1Nc1ncc(C(=O)NCCCCCCCCCNc2ccc3c(c2)C(=O)N(C2CCC(=O)NC2=O)C3=O)cc1NC(=O)c1csc2ccccc12 (stereo not shown) [Example I-12],10 to 36,0.1 to 0.5
Cc1ccccc1Nc1ncc(C(=O)NCCCCCCCNc2ccc3c(c2)C(=O)N(C2CCC(=O)NC2=O)C3=O)cc1NC(=O)c1csc2ccccc12 (stereo not shown) [Example I-39],10 to 36,0.1 to 0.5
Cc1ccccc1Nc1ncc(C(=O)NCCCCCCCNC(=O)c2ccc3c(c2)CN(C2CCC(=O)NC2=O)C3=O)cc1NC(=O)c1csc2ccccc12 (stereo not shown) [Example I-5],10 to 36,0.1 to 0.5
Cc1ccccc1Nc1ncc(C(=O)NCCCCCCCC(=O)N[C@H](C(=O)N2C[C@H](O)C[C@H]2C(=O)N[C@@H](C)c2ccc(-c3scnc3C)cc2)C(C)(C)C)cc1NC(=O)c1csc2ccccc12 [Example I-8],10 to 36,0.1 to 0.5
Cc1ccccc1Nc1ncc(C(=O)NCCCCCNc2ccc3c(c2)C(=O)N(C2CCC(=O)NC2=O)C3=O)cc1NC(=O)c1csc2ccccc12 (stereo not shown) [Example I-17],5 to 10,< 0.1
Cc1ccccc1Nc1ncc(C(=O)NCCCCCCCCCC(=O)O)cc1NC(=O)c1csc2ccccc12 [Example I-25],1 to 5,< 0.1
Cc1ccccc1Nc1ncc(C(=O)NCCCCCCCCCC(=O)N[C@H](C(=O)N2C[C@H](O)C[C@H]2C(=O)NCc2ccc(-c3scnc3C)cc2)C(C)(C)C)cc1NC(=O)c1csc2ccccc12 [Example I-10],10 to 36,0.1 to 0.5
CCCCCCCCCCCCNC(=O)c1cnc(Nc2ccccc2C)c(NC(=O)c2csc3ccccc23)c1 [Example I-28],10 to 36,1 to 10
Cc1ccccc1Nc1ncc(C(=O)NCCOCCOCCOCCC(=O)N[C@H](C(=O)N2C[C@H](O)C[C@H]2C(=O)N[C@@H](C)c2ccc(-c3scnc3C)cc2)C(C)(C)C)cc1NC(=O)c1csc2ccccc12 [Example I-4],10 to 36,1 to 10
Cc1ccccc1Nc1ncc(C(=O)NCC#Cc2ccc3c(c2)CN(C2CCC(=O)NC2=O)C3=O)cc1NC(=O)c1csc2ccccc12 (stereo not shown) [Example I-53],< 1,< 0.1
Cc1ccccc1Nc1ncc(C(=O)NCCCCCNC(=O)c2ccc3c(c2)CN(C2CCC(=O)NC2=O)C3=O)cc1NC(=O)c1csc2ccccc12 (stereo not shown) [Example I-1],10 to 36,0.1 to 0.5
Cc1cc(Br)c2oc(N3CCN(C(=O)CCCCCCCNC(=O)c4cnc(Nc5ccccc5C)c(NC(=O)c5csc6ccccc56)c4)CC3)cc(=O)c2c1 [Example I-87],< 1,0.1 to 0.5
